{
  "source": "paper PMC4211885",
  "about": "(PLoS ONE, 2014)",
  "key": {"[1]": {"system": "CFTR conductance (intracellular cAMP)", "assay": "cAMP detection by whole oocyte (CFTR) conductance in oocytes co-expressing CFTR and OA/TAMac", "assay_type": "cell-based, Xenopus laevis", "conditions": "FSK at 50 µM", "description": "It is also unlikely that the effects of tyramine at high concentration result from an increase in cAMP. It is common that octopaminergic GPCRs can couple through the canonical Gαs/cAMP pathway so we used co-expression of the Cystic Fibrosis Trans-membrane Conductance Regulator (CFTR) as a means of testing for increases in cAMP (see methods for more detail) [60]–[63].\nAs a means of detecting rises in intracellular cAMP levels we tested oocytes co-expressing the CFTR channel and OA/TAMac. Heterologously expressed CFTR can be used as an extremely sensitive assay for intracellular cAMP in Xenopus oocytes. CFTR mediates a chloride-selective leak conductance that is activated by increases in intracellular cAMP [63]. Activity of CFTR can thus be used to indicate whether changes in cAMP correspond with ligand application [60]–[62]. Whole oocyte conductance was monitored using a step protocol and calculated from I/V plots. The command voltage was stepped from the holding potential to various levels (−10 mV to −55 mV in −5 mV increments) for 150 ms. The steady state current during each step was plotted against the command voltage and fit to a line using Clampfit 10 software (Fig. S7A). The slope of the line was taken as the conductance. To minimize the magnitude of the holding current between drug applications, oocytes expressing CFTR were typically held at −20 mV which is close to the typical chloride reversal potential. This was confirmed by the fact that the direct-current evoked by forskolin could appear inward or outward at −20 mV. Oocytes expressing either OA/TAMac alone or OA/TAMac and CFTR typically had resting membrane potentials between −20 mV and −30 mV (mean of −26±5 mV calculated from oocytes in Fig. S7) due to increased expression of endogenous chloride currents.\n(A) The measurement of whole oocyte conductance was done by plotting steady state current against the command voltage recorded during a step protocol. It is defined as the slope (I/V) of the linear least squares regression line. In the example shown tyramine (TA) causes no apparent change in whole oocyte conductance. Octopamine (OA) causes a small change compared to the adenylate cyclase activator forskolin (FSK). […] These cumulative data are from 20 OA/TAMac and CFTR-injected oocytes and 6 OA/TAMac -only injected oocytes. Conductance was measured as shown in A. Not all compounds were tested in all oocytes. Each response is treated as an independent sample. Concentrations of OA and TA were at 100 µM or 1000 µM, FSK was at 50 µM. Some points obtained at 3 minutes were grouped with the 4 minute responses. (C) The change in conductance (Δg) occurring within oocytes as determined by the difference between baseline and the indicated time points post-application of compound. […]"}, "[2]": {"biological_target": "T1, OA/TAMac receptor (Macrobrachium rosenbergii, UniProt D9U2B9)", "T1 sequence (D9U2B9 entry or part of it)": "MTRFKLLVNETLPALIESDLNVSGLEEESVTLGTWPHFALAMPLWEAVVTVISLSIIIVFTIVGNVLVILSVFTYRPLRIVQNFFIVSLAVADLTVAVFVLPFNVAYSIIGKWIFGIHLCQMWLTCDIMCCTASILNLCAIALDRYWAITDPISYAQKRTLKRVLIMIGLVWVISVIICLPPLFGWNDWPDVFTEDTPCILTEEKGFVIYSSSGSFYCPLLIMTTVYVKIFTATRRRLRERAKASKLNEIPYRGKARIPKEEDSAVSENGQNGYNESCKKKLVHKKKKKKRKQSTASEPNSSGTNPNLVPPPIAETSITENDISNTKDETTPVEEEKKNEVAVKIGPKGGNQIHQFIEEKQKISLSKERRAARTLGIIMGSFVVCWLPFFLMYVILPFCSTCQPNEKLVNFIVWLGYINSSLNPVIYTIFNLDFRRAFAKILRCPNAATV", "assay": "Agonist-evoked direct-current (ID) in Xenopus oocytes injected with OA/TAMac cRNA, two-electrode voltage clamp", "assay_type": "cell-based", "conditions": "for Amplitude of agonist evoked ID relative to octopamine-evoked current: all agonists at 50 µM, within single oocytes", "description": "We used Xenopus oocytes to express the prawn OA/TAMac receptor by injection of synthetic cRNA. The injection of foreign RNA into Xenopus oocytes typically induces the expression of multiple native chloride and potassium channels. Ligand evoked currents resulting from modulation of these channels have been used extensively in the characterization of heterologously expressed GPCRs. Oocytes are typically voltage clamped at a constant membrane potential around −60 mV and deviations in holding potential are measured. We refer to currents measured in this way as direct-currents (ID) (after) in order to distinguish them from the voltage-evoked transient current (ICl-T) described later.\nBoth flow rate and pulse duration were precisely controlled and comparisons were made relative to currents within single oocytes.\nTo characterize the dose dependence of ID, series of single transmitters were applied to different individual oocytes injected with OA/TAMac. Oocytes were voltage clamped at −60 mV and tyramine, (+/−)-octopamine, or dopamine were applied using 30 second perfusion-switched applications (see methods for more details).\n(§1) Recordings were performed 1–3 days post-injection at room temperature (20–22°C). Currents were recorded under two-electrode voltage clamp using an Axoclamp 900a amplifier (Molecular Devices LLC, CA USA). A digidata 1440a analog to digital converter was used in conjunction with pCLAMP 10 software (Molecular Devices) for data acquisition and to generate voltage commands. For each step protocol or chemical application data were typically sampled at 5 KHz and filtered digitally at 1 KHz. For the duration of each experiment the current was also continuously sampled at 1 kHz using a separate minidigi 1A digitizer (Molecular Devices). Glass microelectrodes were pulled from filamented 1.2 mm thin wall borosilicate glass (World Precision Instruments, Sarasota, FL) using a Sutter Instruments P-97 puller. They were filled with 3 M KCl and had resistances of 0.8–2.0 MΩ. A silver chloride pellet immersed in 3 M KCl and connected to the bath via a 3% agar bridge made with 3 M KCl was used as the reference electrode.\nOocytes were continuously perfused at 1.5 mL/min either with ND 96 or test compounds dissolved in ND 96. Two types of application were used over the course of this study, a perfusion-switch or a focal application. In all cases solutions were delivered through a gravity fed system and switched using a computer controlled bank of pinch valves. Flow rate was regulated with a manual screw-type pinch valve.\nFor focal application a triple barrel pipette with three parallel independently switched channels was positioned about 1 mm from the surface of the oocyte, up-stream of a cross flow, at an approximate angle of 45 degrees (schematic shown in Fig. S8). Drugs were focally applied during continuous perfusion with ND 96.\n(§2) In experiments where more than three drugs or concentrations were tested a precisely controlled 30 s perfusion-switch was used. Up to eight channels were connected to the bath via an 8-way manifold. There was an approximately 6–7 s delay for solutions to traverse the dead volume between the manifold and the bath."}, "[3]": {"biological_target": "T1, OA/TAMac receptor", "assay": "Antagonist block of ID evoked by 50 µM octopamine in OA/TAMac-injected oocytes", "assay_type": "cell-based", "procedure": "as §1, §2"}, "[4]": {"system": "Uninjected oocytes", "assay": "Direct-current response of uninjected oocytes (control)", "assay_type": "cell-based, Xenopus laevis", "conditions": "n = 5", "procedure": "We first tested receptor-injected oocytes for the occurrence of a response to biogenic amines. Applications of tyramine, octopamine, or dopamine produced an inward ID, typically ranging between 50 nA and 500 nA, under a constant holding potential of −60 mV. […] The amplitude of tyramine evoked ID at concentrations below 10 µM was greater than octopamine or dopamine within the same oocyte (Figs. 2A and S2). […] Instead it would rise and then begin to decline prior to the removal of agonist (dotted line). However, at high concentrations, above 100 µM, ID appeared to approach a stable plateau (Fig. 2B).\nas §1\nSupplementary file pone.0111314.s001.tif: Figure S1 Direct-current (ID) responses are specifically evoked by agonists in oocytes injected with OA/TAMac only. […] The trace is representative of an experimental set of 5 oocytes. Additional uninjected oocytes were tested with various experimental sets throughout the course of this study. (B) A typical preliminary test of agonist sensitivity. Injection of OA/TAMac cRNA alone is sufficient to confer sensitivity to OA. […] Applications are approximately 30 seconds in the upper trace. (C) The response of clonidine (CN), synephrine (SN), and OA within a single OA/TAMac injected oocyte. […] All drugs are applied for 30 seconds each as indicated by black rectangles. Agonist evoked currents are measured within oocytes relative to the octopamine response at 50 µM. The comparison is made to OA because the amplitude of the tyramine response becomes small at concentrations above 10 µM. This is due to a mechanistically undefined process not seen with any other agonist we tested. Note that TA is the first compound applied to a naïve oocyte in this example. […] (TIF) Click here for additional data file."}, "[5]": {"assay": "Solubility limit in ND 96 when preparing test solutions", "assay_type": "physicochemical", "conditions": "ND 96, from methanol stock", "experimental": "Compounds were obtained from Sigma and dissolved in ND96 or calcium free ND 96 (96 mM NaCl, 2 mM KCl, 5 mM MgCl2, 0.1 mM EGTA, and 5 mM HEPES, pH 7.6), unless stated otherwise. […] SQ-22536 was prepared as a 0.1 M stock in water. Yohimbine was dissolved in acidic ND 96 to 1 mM, before being serially diluted at pH 7.6. Forskolin was prepared as a 0.05 M stock in DMSO. Thapsigargin was prepared as a 0.01 M stock in DMSO. (−)-Quinpirol was made as a 0.01 M stock in ND96 and stored in aliquots at −20°C. […] For all antagonists serial dilutions were made in ND 96 containing 50 µM octopamine and applied as a mixture."}, "[6]": {"conditions": "antagonist applied as mixture with 50 µM octopamine, 30 second perfusion-switch, −60 mV, estimated graphically, read-out: IC50 for block of octopamine-evoked ID"}},
  "note": "“Also recorded” adds a separate entry of the source. Like-named read-outs stand apart in the source and are kept apart here.",
  "data": [
    {"compound": "C=C[C@@]1(C)CC(=O)[C@]2(O)[C@@]3(C)[C@@H](O)CCC(C)(C)[C@@H]3[C@H](O)[C@H](OC(C)=O)[C@@]2(C)O1", "note": "[FSK, forskolin]", "values": [
      {"measurement": "Evoked whole oocyte conductance", "setting": "[1]", "value": "significantly larger conductance than baseline or TA"}
    ]},
    {"compound": "NCCc1ccccc1", "note": "[β-phenylethylamine]", "values": [
      {"measurement": "Amplitude of agonist evoked ID relative to octopamine-evoked current", "setting": "[2]; 30 second perfusion-switch", "value": "comparable or greater amplitude than octopamine"}
    ]},
    {"compound": "Nc1ncnc2c1ncn2C1CCCO1", "note": "(stereo not drawn) [SQ-22536]", "values": [
      {"measurement": "Effect of adenylate cyclase inhibitor on amine evoked ID", "setting": "[2]; tyramine n = 3, octopamine n = 6", "value": "no apparent effect; also recorded: no obvious effect"}
    ]},
    {"compound": "C/C=C(/C)C(=O)O[C@H]1C(C)=C2[C@H]([C@@H]1OC(=O)CCCCCCC)[C@@](C)(OC(C)=O)C[C@H](OC(=O)CCC)[C@@]1(O)[C@H]2OC(=O)[C@@]1(C)O", "note": "[thapsigargin]", "values": [
      {"measurement": "Effect of pre-incubation on tyramine-induced ID waveform", "setting": "[2]; 1.7 µM in calcium-free ND 96 for three hours, n = 2", "value": "no apparent effect on the tyramine induced plateau"}
    ]},
    {"compound": "Clc1cccc(Cl)c1N=C1NCCN1", "note": "[Clonidine]", "values": [
      {"measurement": "Amplitude of agonist evoked ID relative to octopamine-evoked current", "setting": "[2]; 30 second perfusion-switch", "value": "no visible response"}
    ]},
    {"compound": "COC(=O)[C@@H]1[C@H]2C[C@H]3c4[nH]c5ccccc5c4CCN3C[C@@H]2CC[C@@H]1O", "note": "[yohimbine]", "values": [
      {"measurement": "IC50", "setting": "[3]", "value": "~0.48", "unit": "µM"}
    ]},
    {"compound": "NCCc1ccc(O)c(O)c1", "note": "[dopamine]", "values": [
      {"measurement": "ID response amplitude (mean ± s.d.)", "setting": "[2]; 10 µM, 10 second focal application, −60 mV, OA/TAMac and CFTR co-injected, n = 11 oocytes", "value": "46±31", "unit": "nA"},
      {"measurement": "EC50", "setting": "[2]; 30 second perfusion-switch, voltage clamped at −60 mV, approximate, estimated graphically from plot, read-out: EC50 of transmitter evoked direct-current (ID), normalized I/Imax", "value": "~63", "unit": "µM"},
      {"measurement": "Concentration at which evoked inward currents became visible/apparent", "setting": "[2]; 30 second perfusion-switched applications, −60 mV", "value": "around 1 µM"},
      {"measurement": "Spearman rank-order correlation (rS) between rise rate and peak amplitude of evoked ID", "setting": "[2]; all responses of the concentration series of Figure 3C", "value": 0.97},
      {"measurement": "Response of uninjected oocytes", "setting": "[4]", "value": "no response"},
      {"measurement": "Response of uninjected oocytes", "setting": "[4]; listed as DA", "value": "do not respond"}
    ]},
    {"compound": "CNCC(O)c1ccc(O)cc1", "note": "(racemic) [(+/−)-synephrine]", "values": [
      {"measurement": "Amplitude of agonist evoked ID relative to octopamine-evoked current", "setting": "[2]; 30 second perfusion-switch", "value": "smaller currents than octopamine or β-PEA"}
    ]},
    {"compound": "CN1CCc2cc(Cl)c(O)cc2[C@@H](c2ccccc2)C1", "note": "[SCH-23390]", "values": [
      {"measurement": "IC50", "setting": "[3]; [6]", "value": "~9.6", "unit": "µM"}
    ]},
    {"compound": "NC1=NCC2c3ccccc3Cc3ccccc3N12", "note": "(stereo not drawn) [epinastine]", "values": [
      {"measurement": "IC50", "setting": "[3]; [6]", "value": "~3.7", "unit": "µM"}
    ]},
    {"compound": "Cc1ccc(N(CC2=NCCN2)c2cccc(O)c2)cc1", "note": "[phentolamine]", "values": [
      {"measurement": "IC50", "setting": "[3]; [6]", "value": "~0.98", "unit": "µM"}
    ]},
    {"compound": "O=C(CCCN1CCC(O)(c2ccc(Cl)cc2)CC1)c1ccc(F)cc1", "note": "[haloperidol]", "values": [
      {"measurement": "Limit of solubility", "setting": "[5]", "value": "could not be tested at 100 µM because of its limit of solubility"}
    ]},
    {"compound": "NCCc1c[nH]cn1", "note": "[histamine]", "values": [
      {"measurement": "Amplitude of agonist evoked ID relative to octopamine-evoked current", "setting": "[2]; 30 second perfusion-switch", "value": "no response or minimal response"},
      {"measurement": "Amplitude of agonist evoked ID relative to octopamine-evoked current", "setting": "[2]; 30 second perfusion-switch, listed as Histamine", "value": "minimal response"}
    ]},
    {"compound": "CCCN1CCC[C@@H]2Cc3n[nH]cc3C[C@H]21", "note": "[(−)-quinpirole]", "values": [
      {"measurement": "Amplitude of agonist evoked ID relative to octopamine-evoked current", "setting": "[2]; 30 second perfusion-switch", "value": "smaller currents than octopamine or β-PEA"},
      {"measurement": "Amplitude of agonist evoked ID relative to octopamine-evoked current", "setting": "[2]; 30 second perfusion-switch, listed as quinpirole", "value": "produces a response in injected oocytes and not in uninjected oocytes"}
    ]}
  ]
}
